Assay results from patent publication US20140045807A2, “THE USE OF 3-METHOXY-PREGNENOLONE FOR THE PREPARATION OF A DRUG FOR TREATING A TRAUMATIC BRAIN INJURY” (priority 2004, published 2014).

How the values were obtained:
[1] = molecular target: purified tubulin and MAP2 (Homo sapiens, UniProt P11137); assay: MAP2-induced polymerization of microtubules in vitro (optical density at 345 nm); type: biochemical; settings: for Activity (increase in optical density at 345 nm): purified tubulin and MAP2, 37° C., GTP; for effect on microtubule polymerization: MAP2 and tubulin with GTP, 37° C.
Chain of purified tubulin and MAP2 (P11137 whole entry): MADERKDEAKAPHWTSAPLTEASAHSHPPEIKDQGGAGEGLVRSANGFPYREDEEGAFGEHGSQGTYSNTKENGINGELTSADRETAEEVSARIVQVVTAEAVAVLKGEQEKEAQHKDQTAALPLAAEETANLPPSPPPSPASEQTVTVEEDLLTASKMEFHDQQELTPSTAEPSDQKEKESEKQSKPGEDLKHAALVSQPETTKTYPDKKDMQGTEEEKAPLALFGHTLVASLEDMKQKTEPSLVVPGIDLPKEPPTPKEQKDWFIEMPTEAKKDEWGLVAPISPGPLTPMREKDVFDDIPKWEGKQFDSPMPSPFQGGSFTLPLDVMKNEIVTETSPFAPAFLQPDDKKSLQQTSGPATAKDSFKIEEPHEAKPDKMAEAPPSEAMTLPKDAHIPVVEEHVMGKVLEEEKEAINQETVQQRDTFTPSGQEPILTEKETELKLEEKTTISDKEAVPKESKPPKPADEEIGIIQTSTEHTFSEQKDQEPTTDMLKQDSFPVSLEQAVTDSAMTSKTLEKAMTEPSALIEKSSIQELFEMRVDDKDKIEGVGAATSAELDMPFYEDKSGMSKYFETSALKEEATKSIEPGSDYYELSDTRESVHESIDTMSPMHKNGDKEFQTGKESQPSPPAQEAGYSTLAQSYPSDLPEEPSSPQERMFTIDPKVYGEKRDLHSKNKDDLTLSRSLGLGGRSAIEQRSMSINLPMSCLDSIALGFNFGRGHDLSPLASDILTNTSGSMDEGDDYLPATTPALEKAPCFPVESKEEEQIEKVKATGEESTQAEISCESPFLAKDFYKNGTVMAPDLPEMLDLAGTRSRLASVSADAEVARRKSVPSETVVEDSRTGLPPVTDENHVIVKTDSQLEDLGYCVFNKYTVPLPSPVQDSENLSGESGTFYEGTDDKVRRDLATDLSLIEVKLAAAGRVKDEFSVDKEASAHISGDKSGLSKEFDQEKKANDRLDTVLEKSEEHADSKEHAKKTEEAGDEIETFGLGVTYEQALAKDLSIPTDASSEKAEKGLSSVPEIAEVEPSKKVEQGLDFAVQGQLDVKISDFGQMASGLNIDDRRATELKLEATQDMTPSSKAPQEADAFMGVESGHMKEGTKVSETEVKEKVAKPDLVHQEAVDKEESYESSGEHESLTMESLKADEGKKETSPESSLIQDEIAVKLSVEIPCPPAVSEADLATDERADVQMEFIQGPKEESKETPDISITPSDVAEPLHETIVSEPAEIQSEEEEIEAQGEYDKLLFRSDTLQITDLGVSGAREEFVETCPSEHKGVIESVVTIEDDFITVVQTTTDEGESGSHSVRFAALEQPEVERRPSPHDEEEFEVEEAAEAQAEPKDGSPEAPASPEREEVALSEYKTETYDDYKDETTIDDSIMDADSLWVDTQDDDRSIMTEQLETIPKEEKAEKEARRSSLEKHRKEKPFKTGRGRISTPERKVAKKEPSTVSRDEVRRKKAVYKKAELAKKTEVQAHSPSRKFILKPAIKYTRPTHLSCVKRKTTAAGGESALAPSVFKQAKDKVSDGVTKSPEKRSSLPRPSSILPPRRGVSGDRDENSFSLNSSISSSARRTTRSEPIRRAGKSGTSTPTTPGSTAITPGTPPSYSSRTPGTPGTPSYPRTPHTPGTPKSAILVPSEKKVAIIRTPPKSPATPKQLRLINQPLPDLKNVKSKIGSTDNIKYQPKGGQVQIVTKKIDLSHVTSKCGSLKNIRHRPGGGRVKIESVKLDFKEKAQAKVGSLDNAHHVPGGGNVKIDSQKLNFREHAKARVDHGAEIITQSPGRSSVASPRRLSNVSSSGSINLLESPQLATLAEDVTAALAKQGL
Experimental: Purified MAP2 and tubulin are mixed in the presence of GTP at 4° C. in a spectrophotometer cuvette. Polymerization is induced by heating at 37° C. and is followed by the increase in optical density (OD) which indicates the quantity of polymers formed.
This in vitro test measures the effect of molecules on the MAP2-induced polymerization of microtubules. This polymerization occurs when MAP2 proteins and tubulin are mixed at adequate concentrations in the presence of GTP. It is accompanied by an increase in optical density measured at 345 nm for 15 to 30 minutes with a UNICON spectrophotometer thermostated at 37° C. (FIG. 1).
Activity is measured by the increase in optical density at 345 nm of a mixture of purified tubulin and MAP2, incubated at 37° C. in the presence of GTP.

[2] = molecular target: MAP2 (Homo sapiens, UniProt P11137); assay: Binding (affinity) by displacement of PREG-^3H
Chain of MAP2 (P11137 whole entry): as above
Experimental: Binding (affinity) is measured by the displacement of PREG-^3H.

[3] = system: α-tubulin forms (Tyr/Glu-Tub, Acet-Tub) in rat hippocampus; assay: Microtubule dynamics in rat hippocampus after single administration; type: in vivo; settings: 10 mg/kg subcutaneously, 3 h following injection
Excerpt: Mean±SEM, n=6 per group. **p<0.01, *[…] vs sesame oil.
The effects produced by neurosteroids were compared with those produced by acute administration of the antidepressant drug fluoxetine (selective serotonin reuptake inhibitor; SSRI).

[4] = system: human neuroblastoma HS-SY5Y cells; assay: Cytotoxicity of okadaic acid, steroid protection (LDH release); type: cell-based; settings: 24 hours, simultaneous addition, increasing concentrations
Excerpt: FIG. 6: Toxicity of okadaic acid. Steroid protection. […] Cell death was indicated by the release of lactate dehydrogenase (LDH) in the culture medium.
Okadaic acid is a protein phosphatase inhibiter. Thus, the hyperphosphorylation of tau protein is implicated in microtubule depolymerization and in human neuroblastoma HS-SY5Y cell death. The exposure of SY5Y cell cultures to okadaic acid does in fact cause significant cell death.

[5] = system: PC12 cells; assay: Retraction of neurites induced by nocodazole; type: cell-based, rat; settings: pretreated one hour at 30 μM, nocodazole 15 minutes
Excerpt: FIG. 5: Retraction of neurites (neurites) induced by nocodazole.
Nocodazole is a microtubule depolymerizing agent. Its addition to PC12 cell cultures, differentiated in the presence of NGF, causes neurites to retract as a result of the depolymerization of their microtubules.

[6] = system: transgenic mice expressing the longest human tau protein isoform; assay: RotaRod test in transgenic mice expressing the longest human tau protein isoform; type: in vivo, mouse; settings: subcutaneous implant releasing 0.38 mg of steroid per day for 90 days
Excerpt: FIG. 8: Effect of molecule 43B on the motor incoordination of transgenic mice expressing the longest isoform of human tau protein in their neurons. […] The maximum speed of rotation of the RotaRod drum before the […] falls is a measurement of motor coordination (higher values correspond to a better treatment effect).
In order to evaluate the therapeutic potential of 43B to treat Alzheimer-type neurodegenerative diseases, a homozygous transgenic line of mice, such as described by Götz (EMBO J. 1995; 14(7):1304-13), can be used.
These mice express the longest human tau protein isoform. They present symptoms of neurological dysfunction expressed as muscular weakness and a reduction in motor coordination which correlate histologically with the appearance of abnormal neurites and hyperphosphorylated tau proteins as is seen in Alzheimer's disease. This pathological phosphorylation decreases the affinity of tau for microtubules and favors its aggregation.
A breeding program was undertaken at Bicêtre and genotyping made it possible to select mice homozygous for the transgene. […] These implants released 0.38 mg of steroid per day for 90 days. The progression of motor incoordination was followed by repeated RotaRod tests.

[7] = system: PC12 cells; assay: Neuritic growth / sprouting in PC12 cells with NGF; type: cell-based, rat; settings: 30 μM, after 3 days of culture, with NGF
Experimental: Each molecule was tested in three culture wells. Measurements were taken for 200 cells per well using Scion Image software.
Neurite (neurite) length was measured for 200 cells per well after 2, 5, and 8 days of culture.
Stimulation of neuritic sprouting is conducted on PC12 cells differentiated in the presence of NGF (10 ng/ml) and the steroid being tested (30 μM) for 3 days. For each condition, the average length of the longest 200 neurites in each cell is measured simultaneously for 3 cultures.

[8] = system: PC12 cell line; assay: Cellular toxicity test; type: cell-based, rat; settings: concentrations as high as solubility limits (approximately 50 μM)
Experimental: Cellular toxicity tests are carried out routinely on the PC12 cell line.

[9] = system: Sprague Dawley rats in the FST; assay: Forced swimming test (FST); type: in vivo, rat; settings: 10 mg/kg subcutaneously, 24, 5, 1 h before testing
Excerpt: (A) 3-methoxy-PREG (43B) decreased rat immobility in the FST showing antidepressant activity. Results are expressed as mean±SEM (n=6-14). One-way ANOVA: Treatment (F5, 46: 4.30 P<0.01). ***P<0.001, *P<0.05 vs. water and sesame oil (Fisher LSD test). […] Results are expressed as mean±SEM (n=6-14). One-way ANOVA: Treatment (F5, 46: 3.57 P<0.01). **P<0.01, *P<0.05 vs. water and sesame oil (Fisher LSD test). […] One-way ANOVA: Treatment (F5, 46: 3.57 P<0.01). **P<0.01, *P<0.05 vs. water and sesame oil (Fisher LSD test).
Drugs were administered following the traditional dosing regimen used in the FST consisting of three injections: 24, 5, 1 h before testing.
The FST is currently the most widely used animal model for assessing depression related behavior and antidepressant drug activity in rodents (Cryan et al., Neubiorev. 2005). Rats are placed in an inescapable cylinder of water where they develop an immobile posture believed to reflect a “depressive”-like state. The time rats spend immobile is decreased by drugs exerting antidepressant activity.
Additional behaviors can be detected in the FST; namely, climbing and swimming. It has been shown that swimming behavior is sensitive to SSRIs such as fluoxetine whereas climbing is sensitive to norepinephrine re-uptake inhibitors (NRI) such as desipramine.

[10] = molecular target: T1, human progesterone receptor(PR) (Homo sapiens, UniProt P06401); assay: Test of progesterone receptor agonist activity (luciferase transactivation, HEK293T); type: cell-based; settings: increasing amounts, 24 hours
T1 construct: expressed in transfected cells; host or cells: HEK293T
T1 sequence (P06401 1-933): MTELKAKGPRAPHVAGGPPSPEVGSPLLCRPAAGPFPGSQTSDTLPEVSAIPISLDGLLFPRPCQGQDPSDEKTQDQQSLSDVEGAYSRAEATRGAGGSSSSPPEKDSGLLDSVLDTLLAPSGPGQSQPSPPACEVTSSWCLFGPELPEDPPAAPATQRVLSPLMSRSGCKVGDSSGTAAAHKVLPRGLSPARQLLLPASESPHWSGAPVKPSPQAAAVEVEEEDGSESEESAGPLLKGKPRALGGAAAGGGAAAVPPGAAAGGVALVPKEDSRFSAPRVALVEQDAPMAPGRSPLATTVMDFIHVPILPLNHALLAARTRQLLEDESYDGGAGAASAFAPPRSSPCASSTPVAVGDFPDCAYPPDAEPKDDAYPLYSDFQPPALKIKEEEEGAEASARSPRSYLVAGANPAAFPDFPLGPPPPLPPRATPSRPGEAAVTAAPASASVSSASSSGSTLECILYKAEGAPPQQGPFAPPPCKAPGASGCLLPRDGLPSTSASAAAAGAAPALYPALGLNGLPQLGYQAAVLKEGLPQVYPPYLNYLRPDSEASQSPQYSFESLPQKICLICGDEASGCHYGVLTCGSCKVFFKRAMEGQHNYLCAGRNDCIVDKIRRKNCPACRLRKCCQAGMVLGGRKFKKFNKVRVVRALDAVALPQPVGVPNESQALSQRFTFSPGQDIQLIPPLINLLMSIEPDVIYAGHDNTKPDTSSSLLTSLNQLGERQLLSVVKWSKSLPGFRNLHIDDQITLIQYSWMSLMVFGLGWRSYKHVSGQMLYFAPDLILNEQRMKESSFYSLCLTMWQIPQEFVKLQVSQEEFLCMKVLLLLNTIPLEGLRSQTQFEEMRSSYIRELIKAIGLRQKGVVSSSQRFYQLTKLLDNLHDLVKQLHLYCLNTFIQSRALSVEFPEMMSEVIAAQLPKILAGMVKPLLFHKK
Experimental: The main experimental setting used is the following: HEK293T cells were transiently transfected, using calcium phosphate precipitation technology, with expression vectors pSG5hPR (which permits expression of human progesterone receptor(PR)), pFC31-luc (contains the luciferase gene under the control of the MMTV promoter, which is in turn activated by binding of a progestin to progesterone receptor) and pcbetagal (which permits expression of betagalactosidase), and cultured during 24 hours with increasing amounts of various compositions: • 1. […] Test of progesterone receptor […] activity: transfected cells were cultured with progesterone (1 nM) and increasing amounts of RU486 (a well-known progesterone receptor antagonist) or 3-methoxy-pregnenolone. • With this setting, a compound with progesterone receptor antagonist activity competes with progesterone for the occupation of progesterone receptor and results in a progressive loss of transactivation activity when the amount of this compound is increased compared to progesterone.

[11] = 40 μM, compared to control kinetics with solvent alone

Compound | Activity (increase in optical density at 345 nm) [1] | Affinity (index of binding) [2] | other results
CC(=O)[C@H]1[C@H](C)C[C@H]2[C@@H]3CC[C@H]4C[C@@H](O)CC[C@]4(C)[C@H]3CC[C@@]21C [3β-hydroxy-5α-pregnane-20-one-16α-methyl] | 53% of PREG | 57% of PREG | –
CO[C@H]1CC[C@@]2(C)[C@@H](CC[C@@H]3[C@@H]2CC[C@]2(C)[C@@H](C(C)=O)CC[C@@H]32)C1 [3β-methoxy-5α-pregnane-20-one] | 10% of PREG | 87% of PREG | –
CO[C@H]1CC[C@@]2(C)C(CCC3C2CC[C@@]2(C)C3CC[C@@H]2[C@@H](C)O)C1 (stereo partly drawn) [3β-methoxy-5α-pregnane-20β-ol] | 65% of PREG | 65% of PREG | –
CO[C@H]1CC[C@@]2(C)C(=CC[C@H]3C4=CC[C@H](C(C)=O)[C@@]4(C)CC[C@@H]32)C1 [3β-methoxy-pregna-5,14-diene-20-one] | 50% of PREG | 102% of PREG | –
CO[C@H]1CC[C@@]2(C)C(=CC[C@@H]3[C@@H]2CC[C@@]2(C)[C@H]3CC[C@@]2(C(C)=O)C(Cl)Cl)C1 [3β-methoxy-pregna-5-ene-20-one-17α-dichloromethyl] | 113% of PREG | 53% of PREG | –
CC(=O)[C@H]1CC[C@H]2[C@@H]3CC=C4C[C@@H](O)CC[C@]4(C)[C@H]3CC[C@]12C [PREG, Pregnenolone] | 100% of PREG | – | Acet-Tub (marker of stable microtubules) [3]: significantly decreased; cell death caused by okadaic acid (LDH release) [4]: Cell death is decreased; resistance of neurites to nocodazole [5]: makes the neurites resistant to nocodazole; motor dysfunction (RotaRod) [6]: Only the 3-methoxy-PREG had a beneficial effect; Lag time of microtubule polymerization [1, 11]: decreased; polymerization rate and quantity of microtubules [1, 11]: clearly increase; effect on microtubule polymerization [1]: activates microtubule polymerization; increase in the average length of the neurites [7]: 60%; cellular toxicity [8]: do not demonstrate toxicity; rat climbing behavior in the FST [9]: not changed; rat swimming in the FST [9]: significantly increased
CC(=O)[C@@]12C[C@@H]1C[C@H]1[C@@H]3CC=C4C[C@@H](O)CC[C@]4(C)[C@H]3CC[C@@]12C [PREG-16α,17α-methylene] | 49% of PREG | 62% of PREG | –
CC(=O)[C@H]1[C@H](C)C[C@H]2[C@@H]3CC=C4C[C@@H](O)CC[C@]4(C)[C@H]3CC[C@@]21C [PREG-16α-methyl] | 70% of PREG | 80% of PREG | –
CC(=O)[C@H]1[C@@H](C)C[C@H]2[C@@H]3CC=C4C[C@@H](O)CC[C@]4(C)[C@H]3CC[C@@]21C [PREG-16β-methyl] | 67% of PREG | 63% of PREG | –
CC(=O)O[C@H](C)[C@H]1CC[C@H]2[C@@H]3CC=C4C[C@@H](O)CC[C@]4(C)[C@H]3CC[C@]12C [Pregna-5-ene-3β,20β-diol-20-acetate] | 108% of PREG | 60% of PREG | –
CNCCC(Oc1ccc(C(F)(F)F)cc1)c1ccccc1 (stereo not shown) [fluoxetine] | – | – | Acet-Tub (marker of stable microtubules) [3]: tendency to increase; Tyr/Glu-Tub ratio (index of microtubule dynamics) [3]: did not change
CC(=O)[C@H]1CC[C@H]2[C@@H]3CCC4=CC(=O)CC[C@]4(C)[C@H]3CC[C@]12C [progesterone, reference compound] | – | – | progesterone receptor agonist (transactivation) activity [10]: permits a transactivation activity; effect on microtubule polymerization [1]: do not stimulate polymerization
PREG-16α,17α-epoxy | 54% of PREG | 41% of PREG | –
pregnenolone sulfate [reference compound] | – | – | effect on microtubule polymerization [1]: do not stimulate polymerization
